Results from patent publication US20070128217A1 (priority 2003, published 2007).

Assays:
[1] = test system: recombinant human anti-SARS-CoV antibody 03-018; format: binding; design: Binding of antibody 03-018 to linear peptides of the N protein of SARS-CoV Urbani / Binding of antibody 03-018 to looped/cyclic peptides of the N protein of SARS-CoV Urbani: unit not given here
[2] = test system: antibodies in sera from SARS patients (sera 1a, 1b, 2, 6, 37, 62, London, SARS-yellow, SARS-green); format: binding, human; design: Binding of serum 6 to linear peptides of protein X1 of SARS-CoV Urbani / Binding of serum 37 to linear peptides of protein X1 of SARS-CoV Urbani / Binding of serum 6 to looped/cyclic peptide (PEPSCAN-ELISA) / Binding of serum 37 to looped/cyclic peptide (PEPSCAN-ELISA) / Binding of serum 37 to looped/cyclic peptides of protein X1 of SARS-CoV Urbani / Binding of serum 6 to linear peptides of protein X2 / Binding of serum 37 to linear peptides of protein X2 / Binding of serum 37 to looped/cyclic peptides of protein X2 of SARS-CoV Urbani / Binding of serum 6 to linear peptides of protein M of SARS-CoV Urbani / Binding of serum 37 to linear peptides of protein M of SARS-CoV Urbani / Binding of serum 6 to looped/cyclic peptides of protein M of SARS-CoV Urbani / Binding of serum 37 to looped/cyclic peptides of protein M of SARS-CoV Urbani / Binding of serum 6 to linear peptides of protein X3 of SARS-CoV Urbani / Binding of serum 37 to linear peptides of protein X3 of SARS-CoV Urbani / Binding of serum 37 to looped/cyclic peptides of protein X3 of SARS-CoV Urbani / Binding of serum 6 to linear peptides of protein X4 of SARS-CoV Urbani / Binding of serum 37 to linear peptides of protein X4 of SARS-CoV Urbani / Binding of serum 37 to looped/cyclic peptides of protein X4 of SARS-CoV Urbani / Binding of serum 6 to linear peptides of protein X5 of SARS-CoV Urbani / Binding of serum 37 to linear peptides of protein X5 of SARS-CoV Urbani / Binding of serum 37 to looped/cyclic peptides of protein X5 of SARS-CoV Urbani / Binding of serum 6 to linear peptides of protein N of SARS-CoV Urbani / Binding of serum 37 to linear peptides of protein N of SARS-CoV Urbani / Binding of serum 6 to linear peptide (PEPSCAN-ELISA) / Binding of serum 1a to looped/cyclic peptides of protein N of SARS-CoV Urbani / Binding of serum 1b to looped/cyclic peptides of protein N of SARS-CoV Urbani / Binding of serum 2 to looped/cyclic peptides of protein N of SARS-CoV Urbani / Binding of serum 6 to looped/cyclic peptides of protein N of SARS-CoV Urbani / Binding of serum 37 to looped/cyclic peptides of protein N of SARS-CoV Urbani / Binding of serum 62 to looped/cyclic peptides of protein N of SARS-CoV Urbani / Binding of serum London to looped/cyclic peptides of protein N of SARS-CoV Urbani / Binding of serum SARS-green to looped/cyclic peptides of protein N of SARS-CoV Urbani: unit not given here
[3] = test system: control sera (pooled serum of ten healthy LUMC hospital workers; commercial negative donor pooled serum from the Dutch bloodbank); format: binding, human; design: Binding of Control serum LUMC to linear peptides / Binding of Control serum Blood-bank to linear peptides / Binding of Control serum LUMC to looped peptides / Binding of Control Serum Blood-Bank to Looped peptides / Binding of Control serum LUMC to linear peptides of the protein M of SARS-CoV Urbani / Binding of Control serum Blood-bank to linear peptides of the protein M of SARS-CoV Urbani / Binding of Control serum LUMC to looped peptides of the protein M of SARS-CoV Urbani / Binding of Control Serum Blood-Bank to Looped peptides of the protein M of SARS-CoV Urbani: unit not given here
[4] = test system: rabbit serum obtained by immunizing a rabbit with the SARS-CoV strain Frankfurt 1; format: binding; design: Binding of a rabbit serum to linear peptides / Binding of a rabbit serum to looped peptides / Rabbit serum linear peptides / Rabbit serum looped peptides / Binding of a rabbit serum to linear peptides of protein N of SARS-CoV Urbani (Rabbit serum linear peptides) / Binding of a rabbit serum to looped/cyclic peptides of protein N of SARS-CoV Urbani (Rabbit serum looped peptides): unit not given here

Row | Sequence | Binding of antibody 03-018 to linear peptides of the N protein of SARS-CoV Urbani [1] | Binding of antibody 03-018 to looped/cyclic peptides of the N protein of SARS-CoV Urbani [1] | Binding of serum 1a to linear peptides of protein N of SARS-CoV Urbani [2] | Binding of serum 1a to looped/cyclic peptides of protein N of SARS-CoV Urbani [2] | Binding of serum 1b to linear peptides of protein N of SARS-CoV Urbani [2] | Binding of serum 1b to looped/cyclic peptides of protein N of SARS-CoV Urbani [2] | Binding of serum 2 to linear peptides of protein N of SARS-CoV Urbani [2] | Binding of serum 2 to looped/cyclic peptides of protein N of SARS-CoV Urbani [2] | Binding of serum 6 to linear peptides of protein N of SARS-CoV Urbani [2] | Binding of serum 6 to looped/cyclic peptides of protein N of SARS-CoV Urbani [2] | Binding of serum 37 to linear peptides of protein N of SARS-CoV Urbani [2] | Binding of serum 37 to looped/cyclic peptides of protein N of SARS-CoV Urbani [2] | Binding of serum 62 to linear peptides of protein N of SARS-CoV Urbani [2] | Binding of serum 62 to looped/cyclic peptides of protein N of SARS-CoV Urbani [2] | Binding of serum London to linear peptides of protein N of SARS-CoV Urbani [2] | Binding of serum London to looped/cyclic peptides of protein N of SARS-CoV Urbani [2] | Binding of serum SARS-green to looped/cyclic peptides of protein N of SARS-CoV Urbani [2] | Binding of serum SARS-yellow to looped/cyclic peptides of protein N of SARS-CoV Urbani [2] | Binding of a rabbit serum to linear peptides of protein N of SARS-CoV Urbani (Rabbit serum linear peptides) [4] | Binding of a rabbit serum to looped/cyclic peptides of protein N of SARS-CoV Urbani (Rabbit serum looped peptides) [4] | further results
1 | TFGGPTDSTDNNQNG | 0.1 | 0.2 | 0.3 | 0.3 | 0.1 | 0.2 | 0.2 | 0.3 | 0.2 | 0.2 | 0.8 | 0.4 | 0.6 | 0.3 | 0.6 | 0.3 | 0.5 | 0.1 | 0.1 | 0.1 | Binding of serum SARS-green to linear peptides of protein N of SARS-CoV Urbani [2]: 0.5; Binding of serum SARS-yellow to linear peptides of protein N of SARS-CoV Urbani [2]: 0.5; Binding of Control Serum Blood-Bank to Looped peptides [3]: 0.5; Binding of Control serum Blood-bank to linear peptides [3]: 0.8; Binding of Control serum LUMC to linear peptides [3]: 0.7; Binding of Control serum LUMC to looped peptides [3]: 0.5
2 | TFPPTEPKKDKKKKT | 0.1 | 0.2 | 0.2 | 0.2 | 0.1 | 0.1 | 0.9 | 0.3 | 0.3 | 0.1 | 0.8 | 0.4 | 0.8 | 0.4 | 0.5 | 0.3 | 0.1 | 0.3 | 0.2 | 0.3 | Binding of serum SARS-green to linear peptides of protein N of SARS-CoV Urbani [2]: 0.3; Binding of serum SARS-yellow to linear peptides of protein N of SARS-CoV Urbani [2]: 0.9; Control Serum Blood-Bank Looped peptides [3]: 0.5; Control serum Blood-bank linear peptides [3]: 0.6; Control serum LUMC linear peptides [3]: 0.7; Control serum LUMC looped peptides [3]: 0.4
3 | TKKSAAEASKKPRQK | 0.1 | 0.2 |  | 0.2 |  | 0.1 |  | 0.2 |  | 0.1 |  | 0.4 |  | 0.3 |  | 0.3 | 0.0 | 0.2 | 0.1 | 0.2 | Recognition of the peptide by sera of SARS-CoV infected individuals, and form (linear, looped/cyclic) in which it is recognized [2]: recognized in linear form; Binding of Control Serum Blood-Bank to Looped peptides [3]: 0.4; Binding of Control serum Blood-bank to linear peptides [3]: 0.8; Binding of Control serum LUMC to linear peptides [3]: 0.9; Binding of Control serum LUMC to looped peptides [3]: 0.4
4 | TNSGPDDQIGYYRRA | 0.1 | 0.2 | 0.3 | 0.5 | 0.2 | 0.4 | 0.2 | 0.5 | 0.2 | 0.3 | 0.7 | 0.9 | 0.7 | 0.8 | 0.5 | 0.6 | 0.6 | 0.7 | 0.2 | 0.5 | Binding of serum SARS-green to linear peptides of protein N of SARS-CoV Urbani [2]: 0.4; Binding of serum SARS-yellow to linear peptides of protein N of SARS-CoV Urbani [2]: 0.6; Binding of Control Serum Blood-Bank to Looped peptides [3]: 0.7; Binding of Control serum Blood-bank to linear peptides [3]: 1.2; Binding of Control serum LUMC to linear peptides [3]: 0.9; Binding of Control serum LUMC to looped peptides [3]: 0.9
